Results on 1 compound are retold here after BindingDB's records for doi:10.1021/jm301365e (Sichuan University, 2012).

The target in this assay is Tyrosine-protein kinase SYK (Homo sapiens) (UniProt P43405). As to the kind of experiment: Inhibition of human recombinant SYK by radiometric kinase assay.

For the compound `CN1CCN(c2ccc(Nc3ncc4nc(Nc5ccccc5)n(C5CCCC5)c4n3)cc2)CC1`, the IC50 came out at 720 nM.

Broadly, the IC50 is the concentration needed to halve the response being measured.
